Reference: US8642631B2, “Methods of treating mammals with eustachian tube dysfunctions” (University of Melbourne, priority 2008, dated 2014)

System: Eustachian tube
Assay: Eustachian tube function test (middle ear pressure equalisation on reflex swallowing) in anaesthetised rats
Format: in vivo, Sprague Dawley rats
Method: Animal experiments were conducted on female and male adult Sprague Dawley rats weighing 250-450 g. Up to five animals were used in each section of the experiment. In this figure, a small tube is glued into the tympanic bulla of an anaesthetised rat (A). The tube is connected to a syringe pump (B), a pressure transducer (C) and data recorder (D) and to a manometer (E). The syringe pump is used to increase pressure within the middle ear. […] From this it can be seen that intra-bulla pressure was increased from ambient (Amb) to around 130 mm of water. […] The overall pressure drop is a measure of the efficiency of pressure equalisation via the Eustachian tube. Each experiment consisted of a series of active Eustachian tube function tests preceded by a passive run. In the passive run pressure was increased in the bulla by a continuous air flow (30 ml/min) until the Eustachian tube opened spontaneously. While the air continued to flow, the pressure in the middle ear decreased until the Eustachian tube closed. Now the pressure in the middle ear, due to continued air flow, could build up again until the Eustachian tube opened a second time. This enabled the measurement of the passive opening and closing pressures of the Eustachian tube. The active runs consisted of three preceding control runs (C1-C3) followed by three runs assessing the effect of intervention S1-S6. At the start of each active run the pressure in the bulla was raised to 75% of the passive opening pressure of the Eustachian tube. At this point the air flow into the bulla was stopped. […] This caused reflex swallowing, which was accompanied by a momentary opening of the Eustachian tube, and reduced middle ear pressure step by step. In each active run 10 consecutive swallows were recorded. […]

SMILES: CNCCc1ccccn1 [betahistine, N-methyl-2-pyridineethanaamine]
- increase in efficiency of Eustachian tube pressure equalisation (anaesthetised rats, betahistine applied within the tympanic bulla and flushed through the Eustachian tube, FIG. 4): around 30%
- effect on ET function (anaesthetised rats, systemic (intraperitoneal) injection, cumulative doses 1, 5 and 10 μl, total 16 μl, FIG. 5): no significant effect
- increase in efficiency of pressure equalisation through the Eustachian tube (healthy anaesthetised rats, betahistine diHCl 5 μl of 8 mg/mL (Vasomotal) applied to the nasopharynx, normalized to control measurement C3, FIG. 3): 31%
